Results published in patent US20130317055A1, “NEURONAL NICOTINIC AGONIST AND METHODS OF USE” (ABBVIE INC., priority 2012, published 2013).

Experiments:
Assay type in all cases: in vivo, human
[1] = test system: clinically stable subjects with schizophrenia; test: Clinical Study A: disposition of subjects, discontinuations and tolerability
Description: (§1) A Phase 2a proof-of-concept (POC) study in clinically stable subjects with schizophrenia who were clinically stable and received stable doses of atypical antipsychotic therapy. The study was a Phase 2, multi-center, randomized, double-blind, placebo-controlled, parallel group study designed to evaluate the safety and efficacy of doses of (4s)-4-(5-phenyl-1,3,4-thiadiazol-2-yloxy)-1-azatricyclo[3.3.1.1^3,7]decane (Compound A) in clinically stable male and female subjects (ages 20 to 55, inclusive) with a Diagnostic and Statistical Manual of Mental Disorders Fourth Edition, Text Revision (DSM-IV-TR) diagnosis of schizophrenia. Psychiatric diagnoses were confirmed using the Mini-International Neuropsychiatric Interview (MINI) version 6.0.0. The criteria for clinical stability was determined by a combination of retrospective data (over the 4 months prior to the start of Screening, which will be supported by clinical records, patient, identified responsible contact person, and physician interviews), and prospective data assessed during the Prospective Stabilization Period of 28 to 42 days duration.
(§2) The study was a Phase 2, multi-center, randomized, double-blind, placebo-controlled, parallel group study designed to evaluate the safety and efficacy of doses of (4s)-4-(5-phenyl-1,3,4-thiadiazol-2-yloxy)-1-azatrieyclo[3.3.1.1^3,7]decane, which is also recognized as Compound A, in treating cognitive deficits in subjects with schizophrenia who were clinically stable and receiving one or two atypical antipsychotic medications. Study drug was administered orally.
(§3) The study consisted of a screening period of at least 28 and up to 42 days, a 84-day outpatient treatment period, a 14-day post-treatment period, and a post-treatment follow-up period. The screening period consisted of three visits: Screening Visit 1, Screening Visit 2, and Day −1. Upon completion of Day −1 procedures, eligible subjects were randomized through an Interactive Voice Response/Interactive Web-Based (IVR/IWB) system. Subjects were randomized in an equal ratio to one of three treatment groups (placebo, 10 mg Compound A, or 25 mg Compound A).
(§4) Subjects were randomized in a 1:1:1 ratio with placebo, 10 mg QD Compound A, of 25 mg Compound A. Each subject was instructed to take study drug once-daily in the morning for 12 weeks. Each daily dose was preferably taken with food. The subject and investigator were blinded to the treatment assignment throughout the study. The treatment assignments for the study subjects are shown below in Table 1.
Subjects completed 2 visits during the screening period. Study site personnel contacted each subject by telephone on Day 21, 35, and 70 of the 84-day treatment period to discuss study drug compliance, antipsychotic medication compliance, concomitant medication use, substance use, and any adverse events.
A total of 207 subjects were randomized.

[2] = test system: clinically stable subjects with schizophrenia; test: Clinical Study A: CANTAB cognition battery; conditions: 10 mg and 25 mg
Description: as §1, with “Psychiatric diagnoses were confirmed using the Mini-International Neuropsychiatric Interview (MINI) version 6.0.0.” left out, “duration. […]” for “duration.”
The primary endpoint was the MCCB composite score, and the primary endpoint analysis was the change on the MCCB composite score from baseline to endpoint versus placebo. Other secondary measures included the MCCB domains, the NSA-16, the CANTAB cognition battery (measured at different time points from the MCCB), and the UPSA-2. […]

[3] = test system: clinically stable subjects with schizophrenia; test: Clinical Study A: UCSD Performance-Based Skills Assessment-2 (UPSA-2); conditions: for UPSA-2 Total Score: Difference from Placebo LS Mean (SE) of Difference / UPSA-2 Total Score: LS Mean (SE) of Change: Baseline to Final Evaluation, ANCOVA; for UPSA-2 Total Score: Observed Mean (SD) Final: Final Evaluation
Description: as §1, §2, §3, §4
The primary endpoint was the MCCB composite score, and the primary endpoint analysis was the change on the MCCB composite score from baseline to endpoint versus placebo. Other secondary measures included the MCCB domains, the NSA-16, the CANTAB cognition battery (measured at different time points from the MCCB), and the UPSA-2. The Positive and Negative Syndrome Scale (PANSS) was included to document stability in schizophrenia symptomatology.
The UCSD Performance-Based Skills Assesstnent-2 (UPSA-2) is a role-play test designed for subjects with schizophrenia to evaluate cognitive functional capacity in six selected domains of basic living skills. These areas include Organization/Planning Financial Skills, Communication, Transportation, Household Management, and Medication Management. […] Scores were obtained for each subtest, and the total score was the sum of these subtests. […] The UPSA-2 required an average of 30 minutes to administer. The UPSA-2 was administered in on Days 14, 28, 56, 84 and 98.

With `c1ccc(-c2nnc(O[C@@H]3C4CC5C[C@H]3C[N@](C5)C4)s2)cc1` [Compound A, (4s)-4-(5-phenyl-1,3,4-thiadiazol-2-yloxy)-1-azatricyclo[3.3.1.1^3,7]decane] the “Discontinuation, primary reason Adverse event, % of treated subjects” value (“Discontinuation … % of treated subjects” for short) ([1]; 10 mg QD) was “(5.8) %”, the “Discontinuation … % of treated subjects” value ([1]; 25 mg QD) was “(4.5) %” and the “Discontinuation … % of treated subjects” value ([1]; Compound A Overall) was “(5.1) %”. For the same compound, the Tolerability ([1]; human patients with schizophrenia, summary statement) was “generally well tolerated”, the Tolerability ([1]; subjects with schizophrenia, doses up to 25 mg QD, including 10 mg QD and 25 mg QD) was “well tolerated” and the “CANTAB battery results relative to MCCB results” value [2] was “consistent”. For the same compound, the “UPSA-2 Total Score: Difference from Placebo LS Mean (SE) of Difference” value ([3]; 10 mg QD) was 0.51 (2.15), the “UPSA-2 Total Score: LS Mean (SE) of Change” value ([3]; 10 mg QD) was 2.78 (1.52) and the “UPSA-2 Total Score: Observed Mean (SD) Final” value ([3]; 10 mg QD) was 87.98 (20.36). The “UPSA-2 Total Score: Difference from Placebo LS Mean (SE) of Difference” value ([3]; 25 mg QD) was 0.63 (2.34), the “UPSA-2 Total Score: LS Mean (SE) of Change” value ([3]; 25 mg QD) was 2.89 (1.70) and the “UPSA-2 Total Score: Observed Mean (SD) Final” value ([3]; 25 mg QD) was 94.29 (15.85). For the same compound, the “UPSA-2 composite score: significance versus placebo” value ([3]; either dose group (10 mg, 25 mg)) was “No significance”.
